31 compounds from patent US9067881B2, “4-tolyl-ethynyl-octahydro-indole-1-ester derivatives” (NOVARTIS AG, priority 2011, dated 2015) can be followed below.

By solubility is commonly meant how much of the substance goes into solution per volume. A lower solubility goes with a poorly soluble substance. The microsomal CLint is the rate of metabolic loss divided by the concentration. Read a low microsomal CLint as greater metabolic stability.

The structures appear in SMILES notation. Converted amounts (≈) assume the structure as drawn.

The nature of one data set: Solubility in Cl free phosphate buffer pH 6.8. It is filed as physicochemical. Particulars: aqueous buffer; Cl free phosphate buffer (0.067 M) pH 6.8.
With `COC(=O)CCC(=O)O[C@@]1(C#Cc2cccc(C)c2)CCC[C@@H]2[C@H]1CCN2C(=O)OC` [Example 62, ((3aR,4S,7aR)-1-(methoxycarbonyl)-4-(m-tolylethynyl)octahydro-1H-indol-4-ylmethyl succinate], the solubility is 164 µg/mL. Same read-out and setting: in the case of `CCCNC(=O)CCC(=O)O[C@@]1(C#Cc2cccc(C)c2)CCC[C@@H]2[C@H]1CCN2C(=O)OC` [Example 64, (3aR,4S,7aR)-methyl 4-(4-oxo-4-(propylamino)butanoyloxy)-4-(m-tolylethynyl)octahydro-1H-indole-1-carboxylate] it was 33 µg/mL (≈ 72.6 µM); in that of `CCNC(=O)CCC(=O)O[C@@]1(C#Cc2cccc(C)c2)CCC[C@@H]2[C@H]1CCN2C(=O)OC` [Example 67, (3aR,4S,7aR)-methyl 4-(4-(ethylamino)-4-oxobutanoyloxy)-4-(m-tolylethynyl)octahydro-1H-indole-1-carboxylate], 123 µg/mL (≈ 279 µM); in that of `CNC(=O)CCC(=O)O[C@@]1(C#Cc2cccc(C)c2)CCC[C@@H]2[C@H]1CCN2C(=O)OC` [Example 58, (3aR,4S,7aR)-methyl 4-(4-(methylamino)-4-oxobutanoyloxy)-4-(m-tolylethynyl)octahydro-1H-indole-1-carboxylate], 87 µg/mL (≈ 204 µM). Still for that read-out and setting: the same measure for `CCCCC(=O)O[C@@]1(C#Cc2cccc(C)c2)CCC[C@@H]2[C@H]1CCN2C(=O)OC` [Example 22, (3aR,4S,7aR)-4-Pentanoyloxy-4-m-tolylethynyl-octahydro-indole-1-carboxylic acid methyl ester]: less than 2 µg/mL; for `CCNC(=O)CCCC(=O)O[C@@]1(C#Cc2cccc(C)c2)CCC[C@@H]2[C@H]1CCN2C(=O)OC` [Example 68, (3aR,4S,7aR)-methyl 4-(5-(ethylamino)-5-oxopentanoyloxy)-4-(m-tolylethynyl)octahydro-1H-indole-1-carboxylate]: 386 µg/mL (≈ 849 µM); for `COC(=O)N1CC[C@@H]2[C@H]1CCC[C@]2(C#Cc1cccc(C)c1)OC(C)=O` [Example 13, (3aR,4S,7aR)-4-Acetoxy-4-m-tolylethynyl-octahydro-indole-1-carboxylic acid methyl ester]: 12 µg/mL (≈ 33.8 µM).

On to `CCN(CC)C(=O)CCC(=O)O[C@@]1(C#Cc2cccc(C)c2)CCC[C@@H]2[C@H]1CCN2C(=O)OC` [Example 57, (3aR,4S,7aR)-methyl 4-(4-(diethylamino)-4-oxobutanoyloxy)-4-(m-tolylethynyl)octahydro-1H-indole-1-carboxylate], for which the solubility is 19 µg/mL (≈ 40.5 µM). The same measure, in the same setting: the same measure for `COC(=O)N1CC[C@@H]2[C@H]1CCC[C@]2(C#Cc1cccc(C)c1)OC(=O)CCC(=O)N(C)C` [Example 59, (3aR,4S,7aR)-methyl 4-(4-(dimethylamino)-4-oxobutanoyloxy)-4-(m-tolylethynyl)octa hydro-1H-indole-1-carboxylate]: less than 2 µg/mL; for `COC(=O)N1CC[C@@H]2[C@H]1CCC[C@]2(C#Cc1cccc(C)c1)OC(=O)CCC(=O)N1CCCC1` [Example 38, (3aR,4S,7aR)-4-(4-Oxo-4-pyrrolidin-1-yl-butyryloxy)-4-m-tolylethynyl-octahydro-indole-1-carboxylic acid methyl ester]: 27 µg/mL (≈ 57.9 µM); for `COCC(=O)O[C@@]1(C#Cc2cccc(C)c2)CCC[C@@H]2[C@H]1CCN2C(=O)OC` [Example 10, (3aR,4S,7aR)-4-(2-Methoxy-acetoxy)-4-m-tolylethynyl-octahydro-indole-1-carboxylic acid methyl ester]: 47 µg/mL (≈ 122 µM). With `CNC(=O)CC(=O)O[C@@]1(C#Cc2cccc(C)c2)CCC[C@@H]2[C@H]1CCN2C(=O)OC` [Example 61, (3aR,4S,7aR)-methyl 4-(3-(methylamino)-3-oxopropanoyloxy)-4-(m-tolylethynyl)octahydro-1H-indole-1-carboxylate], the solubility was 11 µg/mL (≈ 26.7 µM). The compound `CCCC(=O)O[C@@]1(C#Cc2cccc(C)c2)CCC[C@@H]2[C@H]1CCN2C(=O)OC` [Example 15, (3aR,4S,7aR)-4-Butyryloxy-4-m-tolylethynyl-octahydro-indole-1-carboxylic acid methyl ester] came in with a solubility of 2 µg/mL (≈ 5.22 µM). Same read-out and setting: in the case of `COC(=O)CC(=O)O[C@@]1(C#Cc2cccc(C)c2)CCC[C@@H]2[C@H]1CCN2C(=O)OC` [Example 66, (3aR,4S,7aR)-1-(methoxycarbonyl)-4-(m-tolylethynyl)octahydro-1H-indol-4-yl methyl malonate] it was 100 µg/mL (≈ 242 µM); in that of `COC(=O)N1CC[C@@H]2[C@H]1CCC[C@]2(C#Cc1cccc(C)c1)OC(=O)CCCC(=O)NC(C)C` [Example 69, (3aR,4S,7aR)-methyl 4-(5-(isopropylamino)-5-oxopentanoyloxy)-4-(m-tolylethynyl)octahydro-1H-indole-1-carboxylate], 28 µg/mL (≈ 59.8 µM). The compound `CCCNC(=O)CCCC(=O)O[C@@]1(C#Cc2cccc(C)c2)CCC[C@@H]2[C@H]1CCN2C(=O)OC` [Example 70, (3aR,4S,7aR)-methyl 4-(5-oxo-5-(propylamino)pentanoyloxy)-4-(m-tolylethynyl)octahydro-1H-indole-1-carboxylate] yielded a solubility of 32 µg/mL (≈ 68.3 µM). Same read-out and setting: in the case of `COC(=O)N1CC[C@@H]2[C@H]1CCC[C@]2(C#Cc1cccc(C)c1)OC(=O)CCCC(N)=O` [Example 55, (3aR,4S,7aR)-methyl 4-(5-amino-5-oxopentanoyloxy)-4-(m-tolylethynyl)octahydro-1H-indole-1-carboxylate] it was 93 µg/mL (≈ 218 µM); in that of `COC(=O)CCCC(=O)O[C@@]1(C#Cc2cccc(C)c2)CCC[C@@H]2[C@H]1CCN2C(=O)OC` [Example 56, (3aR,4S,7aR)-1-(methoxycarbonyl)-4-(m-tolylethynyl)octahydro-1H-indol-4-yl methyl glutarate], 97 µg/mL (≈ 220 µM); in that of `COC(=O)N1CC[C@@H]2[C@H]1CCC[C@]2(C#Cc1cccc(C)c1)OC(=O)CC(N)=O` [Example 60, (3aR,4S,7aR)-methyl 4-(3-amino-3-oxopropanoyloxy)-4-(nm-tolylethynyl)octahydro-1H-indole-1-carboxylate], 110 µg/mL (≈ 276 µM). Same read-out and setting: the same measure for `CCCCCCCC(=O)O[C@@]1(C#Cc2cccc(C)c2)CCC[C@@H]2[C@H]1CCN2C(=O)OC` [Example 18]: less than 2 µg/mL.

For `CCCCCC(=O)O[C@@]1(C#Cc2cccc(C)c2)CCC[C@@H]2[C@H]1CCN2C(=O)OC` [Example 17, (3aR,4S,7aR)-4-Hexanoyloxy-4-m-tolylethynyl-octahydro-indole-1-carboxylic acid methyl ester], the solubility was less than 2 µg/mL.

A further data set in a line: In-vitro clearance in rat liver microsomes (metabolic stability, compound depletion).
Details: not given
`COC(=O)N1CC[C@@H]2[C@H]1CCC[C@]2(C#Cc1cccc(C)c1)OC(=O)[C@@H](N)Cc1ccccc1` [Example 31, (3aR,4S,7aR)-4-((S)-2-Amino-3-phenyl-propionyloxy)-4-m-tolylethynyl-octahydro-indole-1-carboxylic acid methyl ester] yielded an intrinsic metabolic clearance (microsomal CLint) at 1 μM of 262 µL/min/mg. For `CN[C@H](C(=O)O[C@@]1(C#Cc2cccc(C)c2)CCC[C@@H]2[C@H]1CCN2C(=O)OC)C(C)C` [Example 36, (3aR,4S,7aR)-4-((S)-3-Methyl-2-methylamino-butyryloxy)-4-m-tolylethynyl-octahydro-indole-1-carboxylic acid methyl ester], the intrinsic metabolic clearance (microsomal CLint) at 1 μM was 815 µL/min/mg.

In turn, `COC(=O)N1CC[C@@H]2[C@H]1CCC[C@]2(C#Cc1cccc(C)c1)OC(=O)Cc1ccccc1` [Example 43, (3aR,4S,7aR)-methyl 4-(2-phenylacetoxy)-4-(m-tolylethynyl)octahydro-1H-indole-1-carboxylate] came in with a microsomal CLint at 1 μM of 36 µL/min/mg. On the same count and under the same terms, in the case of `CC[C@H](C)[C@H](N)C(=O)O[C@@]1(C#Cc2cccc(C)c2)CCC[C@@H]2[C@H]1CCN2C(=O)OC` [Example 33, (3aR,4S,7aR)-4-((2S,3S)-2-Amino-3-methyl-pentanoyloxy)-4-m-tolylethynyl-octahydro-indole-1-carboxylic acid methyl ester] it was 660 µL/min/mg; in that of `CCC[C@H](N)C(=O)O[C@@]1(C#Cc2cccc(C)c2)CCC[C@@H]2[C@H]1CCN2C(=O)OC` [Example 32, (3aR,4S,7aR)-4-((S)-2-Amino-pentanoyloxy)-4-m-tolylethynyl-octahydro-indole-1-carboxylic acid methyl ester], 420 µL/min/mg. On to `CC[C@H](C)[C@H](NC)C(=O)O[C@@]1(C#Cc2cccc(C)c2)CCC[C@@H]2[C@H]1CCN2C(=O)OC` [Example 37, (3aR,4S,7aR)-4-((2S,3S)-3-Methyl-2-methylamino-pentanoyloxy)-4-m-tolylethynyl-octahydro-indole-1-carboxylic acid methyl ester], for which the intrinsic metabolic clearance (microsomal CLint) at 1 μM amounted to 693 µL/min/mg. On the same count and under the same terms, in the case of `COC(=O)N1CC[C@@H]2[C@H]1CCC[C@]2(C#Cc1cccc(C)c1)OC(=O)c1c(C)cc(C)cc1C` [Example 53, (3aR,4S,7aR)-methyl 4-(m-tolylethynyl)-4-(2,4,6-trimethylbenzoyloxy)octahydro-1H-indole-1-carboxylate] it was 3.4 µL/min/mg; in that of `COC(=O)N1CC[C@@H]2[C@H]1CCC[C@]2(C#Cc1cccc(C)c1)OC(=O)[C@@H](N)CCSC` [Example 6, (3aR,4S,7aR)-4-((S)-2-Amino-4-methylsulfanyl-butyryloxy)-4-m-tolylethynyl-octahydro-indole-1-carboxylic acid methyl ester], 51 µL/min/mg. The same measure, in the same setting: the same measure for `CC[C@H](N)C(=O)O[C@@]1(C#Cc2cccc(C)c2)CCC[C@@H]2[C@H]1CCN2C(=O)OC` [Example 30, (3aR,4S,7aR)-4-((S)-2-Amino-butyryloxy)-4-m-tolylethynyl-octahydro-indole-1-carboxylic acid methyl ester]: 375 µL/min/mg; for `COC(=O)N1CC[C@@H]2[C@H]1CCC[C@]2(C#Cc1cccc(C)c1)OC(=O)[C@@H](N)CC(C)(C)C` [Example 34, (3aR,4S,7aR)-4-((S)-2-Amino-4,4-dimethyl-pentanoyloxy)-4-m-tolylethynyl-octahydro-indole-1-carboxylic acid methyl ester]: 495 µL/min/mg.
